Article PMC8915830 (Proceedings of the National Academy of Sciences of the …, 2022)

Experiments:
[1] = biological target: T1, hGHSR1aWT (Homo sapiens, UniProt Q92847); assay: Gαq/11-dependent intracellular Ca2+ mobilization; assay type: cell-based; conditions: for activity of the pure/resynthesized molecule: screening aliquots contained oxidated impurities
[2] = biological target: T1, hGHSR1aWT; assay: iCa2+ in WT or Gαq/11 KO HEK293/S cells; assay type: cell-based; conditions: 10 μM ligand; versus WT cells

T1 sequence (Q92847 whole entry): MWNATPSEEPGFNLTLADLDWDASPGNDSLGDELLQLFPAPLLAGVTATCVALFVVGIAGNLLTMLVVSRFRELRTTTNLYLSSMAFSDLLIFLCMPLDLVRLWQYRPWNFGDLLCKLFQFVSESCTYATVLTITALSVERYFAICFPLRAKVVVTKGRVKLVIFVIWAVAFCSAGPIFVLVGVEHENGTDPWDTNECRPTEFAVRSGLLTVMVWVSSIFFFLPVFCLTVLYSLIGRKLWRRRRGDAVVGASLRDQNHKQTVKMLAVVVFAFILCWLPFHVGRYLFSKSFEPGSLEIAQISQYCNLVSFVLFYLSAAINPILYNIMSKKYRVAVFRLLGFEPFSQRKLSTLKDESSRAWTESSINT

Structure (SMILES)	activity of the pure/resynthesized molecule [1]	other results
CCOc1ccc(C2c3c(oc4ccc(C)cc4c3=O)C(=O)N2CCCN(C)C)cc1OC (stereo not shown) [N1956]	could not be confirmed	
C[C@@H](O)CNC(C)(C)CC(=O)N[C@@H]1CCc2ccccc2N(Cc2ccc(-c3ccccc3-c3nn[nH]n3)cc2)C1=O [L585]		ligand-induced iCa2+ in Gαq/11 KO cells [2]: abolished
Cc1nc2ccc(Oc3ccc(F)cc3)cc2c(=O)n1C[C@H]1CCCN(C(C)C)C1 [YIL781]		inhibition of iCa2+ evoked by EC80 N8279, ghrelin or L585 ([1]; 30 min antagonist pretreatment): competitively inhibited
COc1ccc(C2c3c(oc4ccc(Cl)cc4c3=O)C(=O)N2CCCN(C)C)cc1OC (stereo not shown) [N6164]	could not be confirmed	
